Test results taken from patent publication EP4635953A1, “PYRROLOPYRIDINE DERIVATIVE, AND PHARMACEUTICAL COMPOSITION THEREOF AND USE THEREOF” (Iregene Therapeutics Co., Ltd, priority 2022, dated 2024).
Like-named read-outs stand apart in the source and are kept apart here.

Molecular target: single-stranded miR-145
Experiment: Isothermal titration calorimetry (ITC), Waters Nano-ITC
Format: binding
Settings: for Kd: Multiple Sites model
Source text: Isothermal titration calorimetry (ITC) utilizes the principle of power compensation to accurately obtain the enthalpy change of intermolecular interactions within a broad concentration range in the system through a single concentration scan. It measures the heat change during binding and provides the complete thermodynamic characteristics of nucleic acid-ligand interactions. Quantifying the thermodynamic properties and energy of the complex is essential for analyzing the molecular basis of the interaction between the microRNA miR-145 and the compound. The present invention uses the Waters Nano-ITC calorimeter to in vitro verify the nucleic acid-small molecule interactions.
The experimental process involves placing 300µL of a 50µM single-stranded miR-145 solution in a temperaturecontrolled sample chamber, and using small molecule A-3-6 (i.e., the 2-phenyl-N-(1H-pyrrolo[2,3-c]pyridine-5-yl)acetamide obtained in Example 9) as the ligand in a 50µL, 500µM concentration, which is gradually injected (or titrated) into the sample chamber. The heat change is measured by comparing the sample chamber with a reference chamber, showing either an endothermic or exothermic peak. The interaction pattern between the two reactants is fitted using the software provided by the instrument, and it directly calculates the reaction binding enthalpy (ΔH, kJ/mol), reaction binding entropy (ΔS, J/(mol·K)), number of binding sites (n), and binding equilibrium constant (Ka, M), obtaining the kinetic data. […] The calculated number of binding sites (nSite) for A-3-6 with miR-145 solution are n1=3 and n2=1.8, with Kd1=7.017E-8 and Kd2=7.544E-9, ΔH1=-69.08 and ΔH2=-137.2, ΔS1=-9.474E1 and ΔS2=-3.048E2.

O=C(Cc1ccccc1)Nc1cc2cc[nH]c2cn1 [Compound A-3-6, 2-Phenyl-N-(1H-Pyrrolo[2,3-c]pyridin-5-yl)acetamide]
Kd (site 1, read-out: Kd1): 70.2 nM | Kd (site 2, read-out: Kd2): 7.54 nM | binding to the target single-stranded miR-145 (conclusion from the ITC experiment): can specifically bind
